The numbers were not newly measured in US20110311619A1 (Ethypharm, priority 2008, published 2011), which cites them from elsewhere.

Turning to `CC(C)(Oc1ccc(C(=O)c2ccc(Cl)cc2)cc1)C(=O)O` [fenofibric acid], the mean plasma concentration entry (dose of 300 mg fenofibrate per day) is “roughly 15 μg/ml”. For the setting “in vivo”, the plasma elimination half-life result is “roughly 20 hours”. Moreover, the “time after ingestion at which maximum plasma concentration is reached” value (on average, after ingestion of the drug) is recorded as “five”.
